Experiment: molar heat capacity at constant pressure
Conditions: 101.33 kPa, Crystal 2, Small sample (50 mg) DSC

O=[Si]=O [silicon dioxide]
Conditions | molar heat capacity at constant pressure [J/K/mol]
794.62 K | 71.82
794.79 K | 71.62
794.95 K | 71.49
795.12 K | 71.46
795.29 K | 71.47
795.45 K | 71.5
795.62 K | 71.77
795.78 K | 71.9
795.95 K | 71.83
796.12 K | 71.66
796.29 K | 71.81
796.46 K | 72.04
796.62 K | 72.01
796.79 K | 71.86
796.96 K | 71.68
797.12 K | 71.48
797.29 K | 71.6
797.46 K | 71.73
797.62 K | 71.68
797.79 K | 71.65
797.96 K | 71.81
798.13 K | 71.82
798.29 K | 71.7
798.46 K | 71.81
798.62 K | 71.8
798.79 K | 71.9
798.96 K | 72.09
799.12 K | 72
799.29 K | 71.85
799.46 K | 71.85
799.62 K | 71.85
799.79 K | 71.96
799.96 K | 72.13
800.12 K | 72.26
800.29 K | 72.07
800.46 K | 71.86
800.63 K | 72
800.79 K | 72.09
800.96 K | 72.12
801.12 K | 72.16
801.29 K | 71.98
801.46 K | 71.96
801.63 K | 71.86
801.79 K | 71.9
801.96 K | 71.86
802.12 K | 71.92
802.29 K | 71.92
802.46 K | 72.04
802.62 K | 72.2
802.79 K | 72.1
802.96 K | 71.91
803.12 K | 71.68
803.29 K | 71.76
803.46 K | 71.76
803.63 K | 71.8
803.79 K | 72.11
803.96 K | 72.29
804.13 K | 72.1
804.29 K | 71.93
804.46 K | 71.94
804.62 K | 71.92
804.79 K | 71.93
804.96 K | 72.09
805.13 K | 72.17
805.29 K | 72.03
805.46 K | 72.03
805.63 K | 72
805.79 K | 72.07
805.96 K | 72.1
806.13 K | 72.19
806.29 K | 72.25
806.46 K | 72.37
806.63 K | 72.33
806.79 K | 72.24
806.96 K | 72.08
807.13 K | 71.96
807.3 K | 71.9
807.47 K | 72.16
807.63 K | 72.29
807.8 K | 72.39
807.97 K | 72.54
808.13 K | 72.48
808.3 K | 72.36
808.47 K | 72.31
808.64 K | 72.39
808.81 K | 72.34
808.97 K | 72.47
809.14 K | 72.61
809.3 K | 72.59

Reference: the NIST ThermoML archive (doi:10.1016/j.jct.2018.01.019)
